Data reported in patent publication US20220370471A1, “COMPOSITION AND METHOD FOR TREATMENT OF HIPPOCAMPAL SYNAPSE DYSFUNCTION AND COGNITIVE DEFICITS IN ALZHEIMER'S DISEASE” (BOARD OF REGENTS, THE UNIVERSITY OF TEXAS SYSTEM, priority 2019, published 2022).
Square brackets hold non-standard residues; d marks the D form. Ends that are not written are not given here. Peptide text beside a SMILES is read from it. d2Nal = N[C@H](Cc1ccc2ccccc2c1)C(=O)O; Aib = CC(C)(N)C(=O)O

Columns and labels:
[1] = biological target: DRD1 (Homo sapiens, UniProt P21728); conditions: cited from earlier work
Chain of DRD1 (P21728 whole entry, species assumed): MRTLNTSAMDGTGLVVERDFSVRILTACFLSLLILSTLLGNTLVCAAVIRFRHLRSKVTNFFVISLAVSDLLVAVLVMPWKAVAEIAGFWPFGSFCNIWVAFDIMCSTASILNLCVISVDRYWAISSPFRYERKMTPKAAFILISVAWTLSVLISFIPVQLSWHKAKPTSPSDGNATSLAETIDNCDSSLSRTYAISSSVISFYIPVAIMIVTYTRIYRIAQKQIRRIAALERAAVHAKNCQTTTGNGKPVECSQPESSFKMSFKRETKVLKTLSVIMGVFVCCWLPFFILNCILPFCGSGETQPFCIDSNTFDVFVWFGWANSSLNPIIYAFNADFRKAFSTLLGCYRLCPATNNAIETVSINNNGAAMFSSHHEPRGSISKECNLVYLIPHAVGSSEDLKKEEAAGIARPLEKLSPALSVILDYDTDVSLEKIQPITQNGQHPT

[2] = system: hippocampal neurons; assay: Synaptic density (vGLUT1/PSD95) in cultured hippocampal neurons; type: cell-based, mouse; conditions: for Aβ-induced synaptic loss / synaptic density / synaptogenic effect, agonist alone: 1 μM ipamorelin or capromorelin; for Aβ-induced synaptic loss / synaptic density: alone or + 2 μM SKF81297
Description: Immunocytochemistry. […] NIS element software was used for image analysis. “Objective Count” dialog was used for intensity measurement. […] The overlapped dots represent synapses.
Primary hippocampal neuron culture. Hippocampal neuron cultures were prepared as previously described (15). In brief, mouse hippocampi were dissected from postnatal day 0-1 pups in cold HBSS. Cells were dissociated by using 0.025% trypsin at 37° C. for 15 minutes, followed by 10 times homogenization in ice cold DMEM. Dissociated cells were then passed through a 100 μm cell strainer (Corning) and centrifuged for 5 minutes at 210×g. The pellet was gently resuspended in neuron culture medium (Neurobasal A with 2% B27 supplement, 0.5 mM L-glutamine, Invitrogen) and plated on poly-D-lysine (Sigma-Aldrich) coated Lab-Tek chamber slides (Nunc, 177445) with appropriate densities.
Agonist treatment on primary cultured neurons. At 14 days in vitro (DIV14) hippocampal neurons were exposed to the synthetic growth hormone secretagogue receptor agonist MK0677 (Tocris, #5272, 1.5 μM) the dopamine D1-like receptor agonist SKF81297 (Sigma-Aldrich, #S143, 2 μM) or a mixture of MK0677 and SKF81297 for 5 minutes. The exposure was followed by immunostaining to examine the effects of Ghsr1α/Drd1 co-activation on Aβ induced synaptic loss or Ghsr1α/Drd1, Aβ/Ghsr1α interaction as described in previous sections.

[3] = biological target: T1, Ghsr1α/Drd1 complex (Mus musculus, UniProt Q61616+Q99P50); assay: Duolink PLA of Ghsr1α/Drd1 complex in cultured hippocampal neurons; type: cell-based; conditions: oligomeric Aβ42 1 μM, 24 hours; 1.5 μM MK0677, 2 μM SKF81297, or in combination
T1 construct: endogenous in cells; host or cells: primary mouse hippocampal neurons (P0-1, DIV14)
T1 sequence (Q99P50 whole entry): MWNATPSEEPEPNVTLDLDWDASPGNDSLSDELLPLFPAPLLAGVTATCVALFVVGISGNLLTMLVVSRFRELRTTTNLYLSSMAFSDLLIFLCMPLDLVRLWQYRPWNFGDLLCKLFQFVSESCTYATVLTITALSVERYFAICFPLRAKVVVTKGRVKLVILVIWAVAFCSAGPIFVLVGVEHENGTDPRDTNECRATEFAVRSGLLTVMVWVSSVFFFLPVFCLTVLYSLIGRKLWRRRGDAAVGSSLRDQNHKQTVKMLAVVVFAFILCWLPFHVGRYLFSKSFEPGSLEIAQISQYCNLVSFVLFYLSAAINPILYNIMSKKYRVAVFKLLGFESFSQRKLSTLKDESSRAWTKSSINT
T1 sequence (Q61616 whole entry): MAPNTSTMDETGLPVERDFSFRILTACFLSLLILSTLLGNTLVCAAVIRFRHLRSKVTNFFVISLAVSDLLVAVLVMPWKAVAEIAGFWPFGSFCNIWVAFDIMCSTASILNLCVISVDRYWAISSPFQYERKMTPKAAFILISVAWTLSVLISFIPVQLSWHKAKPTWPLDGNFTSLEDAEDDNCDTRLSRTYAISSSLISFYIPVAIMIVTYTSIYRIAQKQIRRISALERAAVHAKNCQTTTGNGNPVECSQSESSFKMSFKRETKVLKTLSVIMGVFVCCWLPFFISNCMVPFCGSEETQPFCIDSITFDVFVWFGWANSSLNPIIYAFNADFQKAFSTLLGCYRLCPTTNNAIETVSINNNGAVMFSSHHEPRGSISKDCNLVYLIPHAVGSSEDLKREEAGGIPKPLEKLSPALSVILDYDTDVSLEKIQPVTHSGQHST
From the text: (§1) Duolink In Situ Proximity Ligation Assay (PLA). […] PLA analysis was referred to previous report (66 67). NIH Image J was used for PLA signal quantification.
(§2) Agonist treatment on primary cultured neurons. […] The exposure was followed by immunostaining to examine the effects of Ghsr1α/Drd1 co-activation on Aβ induced synaptic loss or Ghsr1α/Drd1, Aβ/Ghsr1α interaction as described in previous sections.

[4] = biological target: T2, Aβ/Ghsr1α complex (Mus musculus, UniProt Q99P50); assay: Duolink PLA of Aβ/Ghsr1α complex in cultured hippocampal neurons; type: cell-based; conditions: oligomeric Aβ42 1 μM, 24 hours; 1.5 μM MK0677, 2 μM SKF81297, or in combination
T2 construct: endogenous in cells; host or cells: primary mouse hippocampal neurons; Aβ42 peptide purchased (GenicBio, A-43-T-1000)
T2 sequence (Q99P50 whole entry): as the sequence (Q99P50 whole entry) above
T2 sequence (Q61616 whole entry, further chain): as the sequence (Q61616 whole entry) above
From the text: as §1, §2

[5] = system: hippocampal CA3-CA1 pathway; assay: Long-term potentiation (fEPSP) in hippocampal slices; conditions: MK0677 1.5 μM, SKF81297 2 μM, alone or in combination
Description: For electrophysiological experiments, mice were anesthetized with isoflurane and decapitated. […] Slices were allowed to rest for 30 minutes after being transferred to the recording chamber before recordings began. Recordings of local field potentials (LFPs) were performed on an Axon Multiclamp 700B amplifier (Molecular Devices), and data were acquired and analyzed using AxoGraph X (AxoGraph Scientific). A tungsten concentric bipolar microelectrode (World Precision Instruments), and a recording glass electrode (1.5 MS2) filled with recording ACSF, were placed approximately 200 μm apart in the Schaffer collateral-commissural pathway in the CA1 region of the hippocampus. Pulses were delivered in 30 seconds intervals. Before baseline recordings commenced, input-output curves were taken, using 25-150 μA stimulation currents in 25 μA steps. Three sweeps were sampled at each stimulation intensity and averaged to represent the voltage response at each step. Recordings of baseline responses lasted for at least 40 minutes. Stimulation intensity was set to approximately 40% of the minimum intensity required to evoke the maximum response (based on the input-output curve). The stimulation intensity was kept consistent throughout the duration of the experiment. […] LTP was induced using a theta burst stimulation (TBS) protocol consisting of 10 bursts (5 pulses at 100 Hz) repeated at 5 Hz delivered two times 30 seconds apart. After LTP induction, LFPs were recorded for an additional 60 minutes. The slope of the field excitatory postsynaptic potential (fEPSP) was measured in Axograph scientific software and sweeps were averaged in bins of 5 for both the baseline and post LTP induction periods. Changes in LFPs are expressed as percentage change from the averaged baseline values.

[6] = system: 5×FAD mice; conditions: systemic ghrelin treatment; cited from earlier work
[7] = biological target: T3, Ghsr1α (Mus musculus, UniProt Q99P50, INS247CCPGCC); assay: FlAsH-based FRET assay of Ghsr1α activity in HEK 293T cells; type: cell-based; conditions: oligomeric Aβ42 2 μM, 5 minutes pre-incubation
T3 construct: Mouse full length Ghsr1α cDNA (NCBI Gene ID: 208188) was purchased from OriGene (MR226073); expressed in transfected cells; host or cells: HEK 293T
T3 sequence (Q99P50 with tags, fused parts or gaps INS247CCPGCC): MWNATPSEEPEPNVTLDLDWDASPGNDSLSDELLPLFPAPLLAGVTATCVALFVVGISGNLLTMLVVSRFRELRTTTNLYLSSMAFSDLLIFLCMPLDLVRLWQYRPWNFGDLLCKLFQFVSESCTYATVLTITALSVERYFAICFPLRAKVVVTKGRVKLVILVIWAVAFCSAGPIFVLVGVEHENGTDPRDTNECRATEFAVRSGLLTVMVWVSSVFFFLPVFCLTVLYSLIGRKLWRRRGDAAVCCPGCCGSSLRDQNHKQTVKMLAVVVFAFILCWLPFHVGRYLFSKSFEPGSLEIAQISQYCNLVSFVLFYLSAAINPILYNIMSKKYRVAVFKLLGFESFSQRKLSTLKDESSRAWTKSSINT
From the text: FlAsH-based FRET was created by structural dynamics of Ghsr1α with FlAsH in the intercellular loop 3 and enhanced cyan fluorescent protein (ECFP) in the C-terminus (Ghsr1α^FlAsH/ECFP).
FlAsH-based FRET. […] The CCPGCC motif which has higher binding affinity for FlAsH was inserted in the third intracellular loop between Va1247 and Gly248 of Ghsr1α cDNA or between Thr245 and Gly246 of Drd1 cDNA. […] Fluorescence signals were monitored on microplate reader (BioTek Cytation 5) before and after the treatments. […] Area scanning read mode was used to correct artificial inaccuracies. The FRET ratio (FFlAsH/FECFP) was calculated according to equation as previously reported (69):
The terms a and b are correction factors for the two leakages mentioned above. a is the ratio of the direct emission of donor, ECFP at 535 nm, to its emission at 475 nm when excited at 425 nm which was calculated with cells transfected with pcDNA3-Ghsr1α^FlAsH/ECFP or pcDNA3-Drd1^FlAsH/ECFP only. b is the ratio of the direct emission of FlAsH at 535 nm when excited at 425 nm to its emission at 535 nm when excited at 500 nm which was calculated with FlAsH labeled untransfected cells.

[8] = biological target: T4, Drd1 (Mus musculus, UniProt Q61616, INS245CCPGCC); assay: FlAsH-based FRET assay of Drd1 activity in HEK 293T cells; type: cell-based; conditions: oligomeric Aβ42 2 μM preincubation; SKF81297 100 μM
T4 construct: expressed in transfected cells; host or cells: HEK 293T
T4 sequence (Q61616 with tags, fused parts or gaps INS245CCPGCC): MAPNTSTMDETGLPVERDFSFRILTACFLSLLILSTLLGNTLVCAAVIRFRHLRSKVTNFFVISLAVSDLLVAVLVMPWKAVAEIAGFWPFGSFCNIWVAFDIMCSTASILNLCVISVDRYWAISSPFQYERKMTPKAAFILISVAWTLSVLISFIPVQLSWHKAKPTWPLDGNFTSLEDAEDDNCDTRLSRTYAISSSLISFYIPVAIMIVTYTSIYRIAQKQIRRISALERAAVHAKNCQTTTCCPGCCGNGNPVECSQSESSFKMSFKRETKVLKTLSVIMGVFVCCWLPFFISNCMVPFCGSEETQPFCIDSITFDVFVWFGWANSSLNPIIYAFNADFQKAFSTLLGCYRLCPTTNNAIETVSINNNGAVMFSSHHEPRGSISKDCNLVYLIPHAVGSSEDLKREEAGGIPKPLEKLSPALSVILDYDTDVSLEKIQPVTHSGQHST
Description: GHSR1α forms a complex with DRD1 to regulate DRD 1-mediated hippocampal synaptic strength and memory (8). In order to fully evaluate the influence of Aβ on GHSR1α, the inventor next examined whether oligomeric Aβ42 affects heterodimerization of GHSR1α and DRD1 by using HEK 293T cells co-expressing Ghsr1α and Drd1 (FIG. 2c, FIG. S2). After an incubation with oligomeric Aβ42 (5 μM) for 24 hours, the interaction between Ghsr1α and Drd1 determined by Duolink PLA was suppressed (FIGS. 2d-e), indicating the inhibitory effect of oligomeric Aβ42 on Ghsr1α/Drd1 heterodimerization. To test whether GHSR1α/DRD1 interaction was modulated in a clinical setting, the inventor examined hippocampal tissues from 5 patients with AD and compared with tissues from 5 healthy controls. […] Decreased Ghsr1α/Drd1 heterodimerization also occurred in 5×FAD mice, and this effect was exacerbated with age (FIGS. 2h-i). […]
FlAsH-based FRET. […] Fluorescence signals were monitored on microplate reader (BioTek Cytation 5) before and after the treatments. […] Area scanning read mode was used to correct artificial inaccuracies. The FRET ratio (FFlAsH/FECFP) was calculated according to equation as previously reported (69): […]

[9] = biological target: T5, Ghsr1α/Drd1 (Mus musculus, UniProt Q99P50); assay: Duolink PLA of Ghsr1α/Drd1 interaction in co-expressing HEK 293T cells; type: cell-based; conditions: oligomeric Aβ42 5 μM, 24 hours
T5 construct: Mouse full length Ghsr1α cDNA (NCBI Gene ID: 208188) was purchased from OriGene (MR226073); expressed in transfected cells; host or cells: HEK 293T
T5 sequence (Q99P50 whole entry): as the sequence (Q99P50 whole entry) above
Description: GHSR1α forms a complex with DRD1 to regulate DRD 1-mediated hippocampal synaptic strength and memory (8). In order to fully evaluate the influence of Aβ on GHSR1α, the inventor next examined whether oligomeric Aβ42 affects heterodimerization of GHSR1α and DRD1 by using HEK 293T cells co-expressing Ghsr1α and Drd1 (FIG. 2c, FIG. S2). After an incubation with oligomeric Aβ42 (5 μM) for 24 hours, the interaction between Ghsr1α and Drd1 determined by Duolink PLA was suppressed (FIGS. 2d-e), indicating the inhibitory effect of oligomeric Aβ42 on Ghsr1α/Drd1 heterodimerization. To test whether GHSR1α/DRD1 interaction was modulated in a clinical setting, the inventor examined hippocampal tissues from 5 patients with AD and compared with tissues from 5 healthy controls. […] Decreased Ghsr1α/Drd1 heterodimerization also occurred in 5×FAD mice, and this effect was exacerbated with age (FIGS. 2h-i). […] FlAsH-based FRET assay was performed to examine the effect of oligomeric Aβ42 ([…]) on agonist (SKF81297 100 μM)-induced Drd1 activity in HEK 293T cells expressing Drd1 with FlAsH in the intercellular loop 3 and ECFP in the C-terminus (Drd1^FlAsH/ECFP). […]
(§3) Duolink In Situ Proximity Ligation Assay (PLA). […] NIH Image J was used for PLA signal quantification. […]

[10] = biological target: T6, Ghsr1α Δaa42-116 (Mus musculus, UniProt Q99P50, DEL42-116); assay: Duolink PLA and Co-IP of oligomeric Aβ42 with Ghsr1α mutants in HEK 293T cells; type: binding; conditions: 5 μM oligomeric Aβ42, 24 hours; Duolink PLA, validated by Co-IP
T6 construct: Mouse full length Ghsr1α cDNA (NCBI Gene ID: 208188) was purchased from OriGene (MR226073); expressed in transfected cells; host or cells: HEK 293T
T6 sequence (Q99P50 with tags, fused parts or gaps DEL42-116): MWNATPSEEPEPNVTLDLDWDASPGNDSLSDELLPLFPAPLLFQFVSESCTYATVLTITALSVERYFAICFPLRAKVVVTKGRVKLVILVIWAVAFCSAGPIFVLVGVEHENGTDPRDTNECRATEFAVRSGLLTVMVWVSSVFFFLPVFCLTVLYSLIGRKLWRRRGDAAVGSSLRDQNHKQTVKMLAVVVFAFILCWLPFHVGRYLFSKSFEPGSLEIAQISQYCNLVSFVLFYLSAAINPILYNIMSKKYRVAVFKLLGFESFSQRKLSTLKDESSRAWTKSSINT
From the text: Aβ3 physically interacts with GHSR1α. To determine whether GHSR1α expression is changed in the hippocampus in AD, the inventor performed immunohistochemical and membrane blotting assays in post-mortem hippocampal tissues from 4 subjects with AD and 4 non-demented healthy donors (non-AD). He observed increased GHSR1α expression in hippocampal tissues from patients with AD (FIGS. S1a-b and Table S1), which positively correlated with the amounts of soluble Aβ40 and Aβ42 in hippocampi (FIGS. S1c-d). […] Because Aβ binds to multiple proteins (14-16), the inventor next explored whether GHSR1α is an Aβ binding target. In order to examine the interaction between GHSR1α and AP, he labeled GHSR1α and Aβ with their specific antibodies and ran Duolink proximity ligation assay (PLA), which is a sensitive method to visualize and quantify direct protein interactions in situ (17), on hippocampal tissues from 4 subjects with AD and 4 healthy donors. The inventor observed Aβ3/GHSR1α complexes in hippocampi from patients with AD (FIGS. 1a-b). […] HEK 293T cells expressing full-length mouse Ghsr1α or its mutants were exposed to 5 μM oligomeric Aβ42 for 24 hours followed by Duolink PLA to detect Aβ/Ghsr1α complexes. […]
as §3

[11] = biological target: T7, Drd1 (Mus musculus, UniProt Q61616); assay: Duolink PLA and Co-IP of oligomeric Aβ42 with Drd1 in HEK 293T cells; type: binding; conditions: oligomeric Aβ42 24 hours, Drd1-expressing HEK 293T cells
T7 construct: expressed in transfected cells; host or cells: HEK 293T
T7 sequence (Q61616 whole entry): as the sequence (Q61616 whole entry) above

Oc1cc2c(cc1O)[C@H]1c3ccccc3CN[C@@H]1CC2 (racemic) [dihydrexidine]
binding to DRD1 / DRD2 [1]: much weaker binding affinity

Oc1cc2c(cc1O)C(c1ccccc1)CNCC2 (stereo not shown) [SKF38393]
binding to DRD1 / DRD2 [1]: selectively bind DRD1

Oc1cc2c(c(Cl)c1O)CCNCC2c1ccccc1 (stereo not shown) [SKF81297]
synaptic density / oligomeric Aβ42-induced synapse loss ([2]; oligomeric Aβ42 1 μM, 24 hours, 1.5 μM MK0677, 2 μM SKF81297, or in combination): failed to alleviate | synaptic density, agonist alone ([2]; without oligomeric Aβ42, MK0677 at doses greater than 1.5 μM, SKF81297 2 μM): increased synaptic density | Ghsr1α/Drd1 complex formation [3]: not the agonists alone | Aβ/Ghsr1α complex formation [4]: not MK0677 or SKF81297 alone | stimulus-evoked hippocampal LTP in 5×FAD slices ([5]; slices from 4 month-old 5×FAD mice): no effect | hippocampal LTP in non-Tg slices ([5]; slices from 4 month-old non-Tg mice): no effect

CN1N=C2CCN(C(=O)[C@@H](COCc3ccccc3)NC(=O)C(C)(C)N)C[C@@]2(Cc2ccccc2)C1=O [capromorelin]
Aβ-induced synaptic loss / synaptic density ([2]; oligomeric Aβ42 1 μM, 24 hours): could ameliorate | synaptogenic effect, agonist alone ([2]; without oligomeric Aβ42): comparable synaptogenic effect with ghrelin

CC(C)(N)C(=O)N[C@@H](Cc1c[nH]cn1)C(=O)N[C@H](Cc1ccc2ccccc2c1)C(=O)N[C@H](Cc1ccccc1)C(=O)N[C@@H](CCCCN)C(N)=O [ipamorelin] (H-[Aib]H[d2Nal][dF]K-NH2)
Aβ-induced synaptic loss / synaptic density ([2]; oligomeric Aβ42 1 μM, 24 hours): could ameliorate | synaptogenic effect, agonist alone ([2]; without oligomeric Aβ42): comparable synaptogenic effect with ghrelin

ghrelin: the natural ligand of GHSR1α (GSSFLSPEHQRVQQRKESKKPPAKLQPR; ends and bridges not checked; UniProt Q9UBU3 24-51, looked up)
hippocampal Aβ load in 5×FAD mice [6]: did not affect hippocampal Aβ load

oligomeric Aβ42: Aβ42 peptide (GenicBio) incubated at 4° C. for 24 hours to prepare oligomers
impact on FRET ratio in vehicle-treated cells ([7]; no agonist): no impact | effect on agonist-induced Ghsr1α activation ([7]; then MK0677 50 μM): suppressed | impact on agonist-induced Drd1 activation [8]: no impact | interaction between Ghsr1α and Drd1 (Duolink PLA) [9]: suppressed | interaction with Ghsr1α mutant devoid of aa42-116 [10]: no interaction | Aβ/DRD1 complexes [11]: not observed
